Results published in patent US10766902B2, “Wee-1 inhibiting pyrazolopyrimidinone compounds” (ALMAC DISCOVERY LIMITED, priority 2016, dated 2020).
Like-named read-outs stand apart in the source and are kept apart here.

Key:
[1] = system: phosphorylation of Cdc2 at Tyr15; experiment: ELISA for phosphorylation of Cdc2 at Tyr15 in HT-29 / HCT-116 cells; format: cell-based; conditions: Homo sapiens
Method: Method 2: Determining the Effect of Compounds on the Phosphorylation of Cdc2 at Tyr15
The colorectal cancer cell lines HT-29 and HCT-116 were purchased from the ATCC and routinely maintained in McCoy's Medium (Invitrogen) supplemented with 10% Foetal Calf Serum.
The cells were trypsinised from their growing vessel and counted, 100 μL of cell suspension containing 6000 cells was pipetted into black 96 well Co-star plates and incubated overnight to allow adherence to the surface at a temperature of 37° C. and an atmosphere of 5% CO2. Test compounds were formulated in DMSO and diluted in foetal calf serum supplemented medium. Incubating medium was removed by aspiration and diluted drug supplemented medium added to each well.
The plate was returned to the incubator for an additional eight hours at 37° C. and an atmosphere of 5% CO2. Post incubation, the drug supplemented medium was aspirated from each well and the cells were washed once in ice-cold phosphate buffered saline (PBS). 100 μL of cell lysis buffer (Cell Signalling Technologies #9803) containing 20 mM Tris, 150 mM NaCl, 1 mM EDTA, 1 mM EGTA, 1% Triton-X100, 2.5 mM sodium pyrophosphate, 1 mM glycerophosphate, 1 mM Na3VO4 and 1 μg/mL leupeptin was added to each well of the 96 well plate and incubated at 4° C. for 30 min. The samples on the plate were snap frozen at −80° C. until required. Immediately before the continuation of the assay, the sample plate was thawed and centrifuged at 4° C. for 10 min and the supernatant transferred to secondary tubes or 96 well plate.
Cell supernatant was mixed in a ratio of 1:1 with sample dilutent buffer and vortexed for one minute. 100 μL of diluted sample was pipetted into pre-coated plates containing a rabbit polyclonal antibody for phospho-cdc2 (Tyr15) (Cell Signalling Technologies PathScan kit #7176). The plate was sealed and incubated overnight at 4° C.
The plate seal was removed and the well contents aspirated, followed by 3×5 min washes with 200 μL of diluted wash buffer. Between each wash the plate was tapped firmly onto blotting paper to ensure the removal of all kit solution. 100 μL of kit detection antibody was added to each well and the plate re-sealed and incubated at 37° C. for 1 h. Post incubation the plate was washed and processed in a similar manner to that previously described.
100 μL of horseradish peroxidise-linked secondary antibody was added to each test well, the plate sealed and incubated for thirty minutes at 37° C. Post incubation, the plate was washed as previously stated, followed by the addition of 100 μL of 3,3′,5,5′ tetramethylbenzidine (TMB reagent). The plate was sealed and incubated at RT for 30 min.
100 μL of stop solution was added to each well and the underside of the plate wiped with a lint-free tissue, prior to spectrophotometric determination. Absorbance from each well was read at 450 nm within 30 min of the addition of the stop solution.
The percentage of phospho-cdc2 was calculated compared to DMSO control and plotted versus the concentration of inhibitor using GraphPad Prism. Data was fitted using non-linear regression analysis and IC50 values generated.

[2] = target: CSNK1G2 (CK1 gamma 2) (Homo sapiens (Human), UniProt P78368); experiment: SelectScreen Kinase Profiling: CSNK1G2 (CK1 gamma 2); format: biochemical; conditions: tested at 300-350 nM
Text: (§1) Table 4 below highlights the selectivity of a representative compound of the invention, Example 5, against a panel of 50 kinases (assessed using the Invitrogen SelectScreen® Kinase Profiling Service).

[3] = target: SYK (Homo sapiens (Human), UniProt P43405); experiment: SelectScreen Kinase Profiling: SYK; format: biochemical; conditions: tested at 300-350 nM
Text: as §1

[4] = target: Wee-1 kinase (Homo sapiens (Human), UniProt P30291); experiment: Measurement of Wee-1 kinase activity (ADP-Glo luminescence); format: biochemical
How it was run: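 Activated Wee-1 preincubated 30 min at RT with compound in Tris/MgCl2 buffer with BSA and DTT, then reacted 1 h at RT with poly(Lys,Tyr 4:1) (2.0 μg/mL) and 30 μM ATP as added aliquot. ADP formed measured by ADP-Glo luminescence; IC50 by non-linear regression of % inhibition.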

[5] = target: AURKA (Aurora A) (Homo sapiens (Human), UniProt O14965); experiment: SelectScreen Kinase Profiling: AURKA (Aurora A); format: biochemical; conditions: tested at 300-350 nM
Text: as §1

[6] = target: CHEK1 (CHK1) (Homo sapiens (Human), UniProt O14757); experiment: SelectScreen Kinase Profiling: CHEK1 (CHK1); format: biochemical; conditions: tested at 300-350 nM
Text: as §1

[7] = system: SK-LU-1 cells; experiment: Cell viability (CellTiter-Glo), SK-LU-1; format: cell-based; conditions: Homo sapiens, SK-LU-1, 144 h; cell viability after 6 days
Method: All cell lines (HT29, A427, A498, SKLU-1) were obtained from the American Type Culture Collection (ATCC), maintained in the recommended media supplemented with 10% (v/v) FBS, 1% (v/v) Penicillin/streptomycin and kept at 37° C. in a humidified atmosphere with 5% CO2. Cells were seeded in 96 wp format typically at a seeding density of 3500-5000 cells/well and treated after 24 hours with increasing concentration of compound from 0 to 100 μM in ½ log unit increments. Cell viability was assessed after 72 hours (HT29, A427) or after 6 days (SKLU-1, A498) by CellTiter-Glo® as recommended by the manufacturer's instructions (Promega). Analysis and EC50 values were derived using GraphPadPrism.

[8] = target: IKBKB (IKK beta) (Homo sapiens (Human), UniProt O14920); experiment: SelectScreen Kinase Profiling: IKBKB (IKK beta); format: biochemical; conditions: tested at 300-350 nM
Text: as §1

Chain of Wee-1 kinase (P30291 whole entry): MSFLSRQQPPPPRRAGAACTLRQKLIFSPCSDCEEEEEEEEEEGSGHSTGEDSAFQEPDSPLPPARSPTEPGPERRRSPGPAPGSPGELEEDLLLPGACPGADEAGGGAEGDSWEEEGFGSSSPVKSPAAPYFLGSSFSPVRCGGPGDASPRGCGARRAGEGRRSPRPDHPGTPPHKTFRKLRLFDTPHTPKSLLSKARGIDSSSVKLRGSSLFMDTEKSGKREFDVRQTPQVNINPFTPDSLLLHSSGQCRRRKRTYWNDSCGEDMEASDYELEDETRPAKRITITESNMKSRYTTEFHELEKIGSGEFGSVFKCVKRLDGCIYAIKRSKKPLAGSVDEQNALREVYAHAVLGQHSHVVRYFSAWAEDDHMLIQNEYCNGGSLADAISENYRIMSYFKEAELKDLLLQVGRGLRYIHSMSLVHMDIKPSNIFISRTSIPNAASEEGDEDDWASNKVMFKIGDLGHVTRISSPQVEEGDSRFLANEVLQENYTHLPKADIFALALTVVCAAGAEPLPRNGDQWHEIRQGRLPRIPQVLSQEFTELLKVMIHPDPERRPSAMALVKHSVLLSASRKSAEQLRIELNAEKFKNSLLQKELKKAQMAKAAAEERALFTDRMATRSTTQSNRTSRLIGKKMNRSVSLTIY
Chain of IKBKB (IKK beta) (O14920 whole entry): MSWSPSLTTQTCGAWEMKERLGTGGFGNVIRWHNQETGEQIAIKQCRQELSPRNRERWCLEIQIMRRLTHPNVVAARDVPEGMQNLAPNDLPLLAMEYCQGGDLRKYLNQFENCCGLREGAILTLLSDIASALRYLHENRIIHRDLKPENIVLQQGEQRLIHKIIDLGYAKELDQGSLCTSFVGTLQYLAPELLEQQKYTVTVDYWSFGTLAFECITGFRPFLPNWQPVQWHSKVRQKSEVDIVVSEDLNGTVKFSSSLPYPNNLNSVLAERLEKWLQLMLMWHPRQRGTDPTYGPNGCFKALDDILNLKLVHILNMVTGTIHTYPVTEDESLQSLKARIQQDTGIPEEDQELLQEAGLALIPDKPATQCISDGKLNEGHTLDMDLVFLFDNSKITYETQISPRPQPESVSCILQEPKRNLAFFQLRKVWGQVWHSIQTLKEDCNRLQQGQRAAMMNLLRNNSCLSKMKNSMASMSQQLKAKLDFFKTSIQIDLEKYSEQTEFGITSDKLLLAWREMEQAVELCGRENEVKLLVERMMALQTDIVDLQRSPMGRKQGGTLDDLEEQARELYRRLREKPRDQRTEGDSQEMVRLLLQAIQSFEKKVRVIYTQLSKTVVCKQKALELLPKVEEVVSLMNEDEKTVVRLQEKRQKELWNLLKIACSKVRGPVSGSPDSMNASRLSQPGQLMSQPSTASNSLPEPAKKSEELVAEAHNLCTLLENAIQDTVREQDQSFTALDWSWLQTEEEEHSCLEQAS
Chain of CSNK1G2 (CK1 gamma 2) (P78368 whole entry): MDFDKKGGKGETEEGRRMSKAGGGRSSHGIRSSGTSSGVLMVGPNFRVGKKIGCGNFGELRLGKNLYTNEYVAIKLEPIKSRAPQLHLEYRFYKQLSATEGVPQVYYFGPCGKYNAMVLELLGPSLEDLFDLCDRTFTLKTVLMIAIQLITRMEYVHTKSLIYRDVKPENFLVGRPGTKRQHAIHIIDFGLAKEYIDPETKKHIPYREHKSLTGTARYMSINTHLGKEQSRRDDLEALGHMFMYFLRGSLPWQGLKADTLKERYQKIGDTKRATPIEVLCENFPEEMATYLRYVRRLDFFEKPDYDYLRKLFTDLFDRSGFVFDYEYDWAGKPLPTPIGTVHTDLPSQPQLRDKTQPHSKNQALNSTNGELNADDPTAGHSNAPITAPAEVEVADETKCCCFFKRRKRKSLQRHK
Chain of CHEK1 (CHK1) (O14757 whole entry): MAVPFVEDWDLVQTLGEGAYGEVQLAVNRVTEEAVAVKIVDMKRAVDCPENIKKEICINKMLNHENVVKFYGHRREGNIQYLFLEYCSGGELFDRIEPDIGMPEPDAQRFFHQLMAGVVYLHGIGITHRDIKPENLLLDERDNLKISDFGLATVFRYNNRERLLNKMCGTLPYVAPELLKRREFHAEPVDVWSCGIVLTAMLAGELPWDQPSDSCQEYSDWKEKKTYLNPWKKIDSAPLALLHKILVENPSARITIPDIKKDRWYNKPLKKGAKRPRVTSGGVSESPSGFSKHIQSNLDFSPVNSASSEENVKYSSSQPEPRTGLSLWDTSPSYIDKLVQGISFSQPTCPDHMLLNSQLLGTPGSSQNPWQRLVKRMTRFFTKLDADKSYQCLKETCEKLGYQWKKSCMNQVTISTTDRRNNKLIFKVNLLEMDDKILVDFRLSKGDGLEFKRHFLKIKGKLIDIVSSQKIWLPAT
Chain of AURKA (Aurora A) (O14965 whole entry): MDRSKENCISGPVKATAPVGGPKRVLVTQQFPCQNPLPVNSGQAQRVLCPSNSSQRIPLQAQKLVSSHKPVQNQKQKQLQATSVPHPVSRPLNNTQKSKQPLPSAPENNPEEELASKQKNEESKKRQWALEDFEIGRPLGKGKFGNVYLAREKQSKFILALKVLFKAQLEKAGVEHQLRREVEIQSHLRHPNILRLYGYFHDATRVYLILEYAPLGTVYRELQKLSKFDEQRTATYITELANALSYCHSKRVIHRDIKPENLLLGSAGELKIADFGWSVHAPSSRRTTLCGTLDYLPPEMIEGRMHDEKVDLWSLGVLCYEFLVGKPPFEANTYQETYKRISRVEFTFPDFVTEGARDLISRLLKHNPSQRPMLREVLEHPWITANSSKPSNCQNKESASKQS

Q: How did the EC50 ([1]; 8 h, Table 2, colorectal cancer cells, eight hours incubation, read-out: ELISA p-CDC2 EC50) turn out when `C=CCn1c(=O)c2cnc(Nc3ccc(N4CCN(C)CC4)cc3)nc2n1-c1cccc(N=S(C)(C)=O)n1` [Example 5, 1-(6-{[Dimethyl(oxo)-λ^6-sulfanylidene]amino}pyridine-2-yl)-6-{[4-(4-methylpiperazin-1-yl)phenyl]amino}-2-(prop-2-en-1-yl)-1H,2H,3H-pyrazolo[3,4-d]pyrimidin-3-one] was run?
A: 12 nM

Q: What about the EC50 ([1]; Table 3, read-out: ELISA p-CDC2 EC50) of the same molecule?
A: 12 nM

Q: What about the EC50 ([1]; Table 5, data obtained as described in the experimental section of the current invention, read-out: ELISA/nM) of the same molecule?
A: 12 nM

Q: And the “inhibition of CSNK1G2 (CK1 gamma 2)” value [2]?
A: − (inhibition under 50% (tested at 300-350 nM))

Q: What about the “inhibition of SYK” value [3] of the same molecule?
A: − (inhibition under 50% (tested at 300-350 nM))

Q: And the IC50 ([4]; Table 5, data obtained as described in the experimental section of the current invention, read-out: Wee-1/nM)?
A: 1.2 nM

Q: What about the IC50 ([4]; Table 7, data obtained as described in the experimental section of the current invention, read-out: Wee-1/nM) of the same molecule?
A: 1.2 nM

Q: What about the IC50 ([4]; read-out: Wee1 IC50) of the same molecule?
A: 1.2 nM

Q: And the “inhibition of AURKA (Aurora A)” value [5]?
A: − (inhibition under 50% (tested at 300-350 nM))

Q: What about the “inhibition of CHEK1 (CHK1)” value [6] of the same molecule?
A: − (inhibition under 50% (tested at 300-350 nM))

Q: What about the EC50 [7] of the same molecule?
A: 12 nM

Q: And the “inhibition of IKBKB (IKK beta)” value [8]?
A: − (inhibition under 50% (tested at 300-350 nM))
